Measurements as given in patent US20060069038A1, “Irreversible caspase-3 inhibitors as active site probes” (priority 2003, published 2006).
Like-named read-outs stand apart in the source and are kept apart here.

Experiments:
rat thymocytes = experiment: DNA fragmentation (flow cytometry) in cultured rat thymocytes; assay type: cell-based; details: for IC50: Rattus norvegicus, Thymocyte
Method: Rat thymocytes were cultured for 24 hours at a density of 10×10^6 cells/ml in CytoSF4 supplemented with 2 mM L-glutamine and penicillin-streptamycin and the indicated concentration of caspase inhibitors.
DNA fragmentation was determined by flow cytometry on 1.5×10^6 thymocytes or 500,000 Jurkat cells fixed for 30 min on ice in 80% EtOH. The cells were pelleted by centrifugation at 300 g for 10 min, suspended in PBS and incubated on ice for 45 min. […] Several dilutions were prepared for each sample to ensure that signal would be found within the assays linear range.

caspase-3 = biological target: T1, caspase-3 (Rattus norvegicus, UniProt P55213); experiment: Caspase active site occupancy by [125I]-M808 labeling in whole rat thymocytes; assay type: cell-based
T1 construct: endogenous in cells; host or cells: primary rat thymocytes (Sprague-Dawley), spontaneous apoptosis in culture
T1 sequence (P55213 29-175 limits assumed): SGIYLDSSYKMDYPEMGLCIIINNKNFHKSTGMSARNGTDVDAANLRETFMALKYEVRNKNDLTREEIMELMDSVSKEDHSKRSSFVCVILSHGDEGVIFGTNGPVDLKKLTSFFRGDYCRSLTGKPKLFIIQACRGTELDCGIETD
T1 sequence (P55213 176-277 limits assumed): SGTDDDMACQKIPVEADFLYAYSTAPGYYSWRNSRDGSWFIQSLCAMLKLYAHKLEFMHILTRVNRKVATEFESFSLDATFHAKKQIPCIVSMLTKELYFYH
Method: FIG. 5. Determination of caspase active site occupancy by M867 in cultured rat thymocytes. A-Theoretical calculations for the determination of the percentage of caspase-3 active sites occupied by M867 in whole cells. The total amount of caspase-3 p17 subunit is determined densitometrically by either Western blotting of saturation [^125I]-M808 labeling. Partial labeling of active caspases in whole cells is perforemd (see materials and methods). A graph of the p17 amount against partial [^125I]-M808 labeling signal in the absence of M867 (or other reversible caspase inhibitors) is plotted. The [^125I]-M808 signal expected from the measured p17 amount is estimated form this plot. The actual [^125I]-M808 signal (by partial labeling) in the presence of reversible inhibitor is measured. The ratio of actual [^125I]-M808 signal over expected [^125I]-M808 signal multiplied by 100=the percentage of caspase active sites unoccupied by an inhibitor. The percentage occupancy=100−% free active sites. B-C An actual determination of caspase active site occupancy by M867 in whole rat thymocytes. B-caspase-3 western blot. C-[^125I]-M808 signal from whole rat thymocytes exposed to increasing concentrations of M867. Comparison of M867 caspase inhibition potency (IC50) determined by DNA fragmentation inhibition and [^125I]-M808 labeling is also depicted. […]

IC50 (rat thymocytes; cultured rat thymocytes, experiment of FIG. 5, read-out: IC50, inhibition of DNA fragmentation): 240 nM | IC50 (rat thymocytes; cultured thymocytes, N. Methot et al., in press, p<0.01 vs spectrin cleavage, read-out: IC50, inhibition of DNA fragmentation): 270 nM | IC50 (rat thymocytes; five independent experiments, read-out: DNA fragmentation IC50): 270 nM | IC50 (caspase-3; five independent experiments, p=0.03 vs DNA fragmentation IC50, read-out: IC50 determined with M808): 130 nM | IC50 (caspase-3; whole rat thymocytes, experiment of FIG. 5, read-out: IC50, occupancy of caspase by M867 ([125I]-M808 labeling)): 140 nM
SMILES: CCCCCN(C)CC(=O)[C@H](CC(=O)O)NC(=O)[C@H](CC)n1cc(C(C)(C)C)nc(NCc2nonc2C)c1=O [Example M867, (3S)-3-({(2S)-2-[5-tert-butyl-3-{[(4-methyl-1,2,5-oxadiazol-3-yl)methyl]amino}-2-oxopyrazin-1(2H)-yl]butanoyl}amino)-5-[methyl(pentyl)amino]-4-oxopentanoic acid]
M867 required to inhibit DNA fragmentation compared to spectrin cleavage (rat thymocytes; ratio of IC50s): Three-fold
